Experimental findings from US10253081B2, “Glucagon analogues” (Zealand Pharma A/S, priority 2012, dated 2019) are described below.

Experiment [1] concerns the target T1, human glucagon receptor (Glucagon-R) (Homo sapiens, UniProt P47871).
T1 construct: expressed in transfected cells
Put plainly: Glucagon receptor efficacy assay (cAMP AlphaScreen, CHO cells). The class given is cell-based. The note with it: Table 1A; CHO cells expressing human Glucagon-R, cAMP; read-out: EC50 hGCGR CHO-K1. In outline:
(§1)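 Stably transfected CHO clones expressing human GLP-1R or glucagon receptor were treated with increasing peptide concentrations for 15 min at room temperature in KRBH containing 0.1 mM IBMX. After lysis, cAMP was quantified by AlphaScreen; EC50 and efficacy relative to GLP-1 or glucagon reference came from curve fitting.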
Background: In Alpha technology, singlet oxygen from a donor bead excites a nearby acceptor bead.

Experiment [2] addresses T2, human glucagon-like peptide 1 receptor (GLP-1R) (Homo sapiens, UniProt P43220).
T2 construct: expressed in transfected cells
In words: GLP-1 receptor efficacy assay (cAMP AlphaScreen, CHO cells). Format: cell-based. Particulars: Table 1A; for EC50: CHO cells expressing human GLP-1-R, cAMP, read-out: EC50 hGLP-1R CHO-K1; for Ratio GLP-1/Glucagon: EC50 [GLP-1R]/EC50 [Glucagon-R]. In outline:
as §1

Experiment [3] addresses T3, endogenous GLP-1 receptors (Mus musculus, UniProt O35659).
T3 construct: Agonistic activity of the test compounds on endogenous GLP-1 receptors; endogenous in cells
T3 sequence (O35659 22-463): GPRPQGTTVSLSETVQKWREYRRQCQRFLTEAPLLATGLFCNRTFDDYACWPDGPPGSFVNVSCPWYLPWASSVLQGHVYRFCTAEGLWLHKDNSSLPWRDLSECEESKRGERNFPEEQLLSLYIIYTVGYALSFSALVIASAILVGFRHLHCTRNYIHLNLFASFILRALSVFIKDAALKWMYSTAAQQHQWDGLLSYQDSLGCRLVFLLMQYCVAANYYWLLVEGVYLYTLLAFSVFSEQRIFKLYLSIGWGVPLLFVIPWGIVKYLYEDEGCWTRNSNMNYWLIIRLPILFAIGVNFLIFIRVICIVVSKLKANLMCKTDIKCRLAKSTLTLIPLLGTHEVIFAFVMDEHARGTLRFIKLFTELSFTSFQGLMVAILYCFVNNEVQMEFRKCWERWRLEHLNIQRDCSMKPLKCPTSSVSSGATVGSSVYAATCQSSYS
Put plainly: Agonistic activity on endogenous GLP-1 receptor (cAMP, murine insulinoma cell line). Particulars: intracellular cAMP, 15 minutes at 26° C.; read-out: EC50 GLP-1R (murine insulinoma cells). Format: cell-based. In outline: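 Murine insulinoma cells were exposed 15 min at 26° C in KRBH with 0.1% DMSO to compound or GLP-1 ([…]), then cAMP was measured by AlphaScreen against a standard curve, in quadruplicate. pEC50 came from curve fits; % CTL was normalised to the maximal GLP-1 cAMP response.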

A short description of experiment [4]: Oral glucose tolerance test (OGTT). The class given is in vivo, C57BL/6J mice. The note with it: blood glucose AUC 0-120 min, 10 nmol/kg s.c. 4 h before oral glucose 2 g/kg. As for the experimental part: Male C57BL/6J mice were fasted for 10 h before they received an oral glucose bolus of 2 g/kg body weight. Peptides were dissolved in saline buffered with 25 mM phosphate and administered at a dose of 10 nmol/kg body weight by subcutaneous injection 4 h before the glucose bolus. Control animals received a vehicle injection only. Group size was 7 animals per group. A pre-dose and a pre-glucose (0 min) blood sample were obtained by tail bleeding and blood glucose was measured with a glucometer. Additional samples of tail blood for measuring blood glucose were obtained 15 min, 30 min, 60 min, 90 min and 120 min after the glucose challenge. […] Calculation of AUC was done by the trapezoidal rule without baseline correction. The data are presented as mean±S.E.M. Statistical comparisons were conducted by one-way ANOVA followed by Tukey's post test. Vehicle alone was used as a control.

*1 amine or outer side, *2 acyl side, *3 side chain or, on linkers, in order; H or OH if unused. Where a SMILES comes first, the peptide text is derived from it. Side-chain parts run from the residue outwards. [ ]: non-standard residue; d: D form. The star is where a group is joined. γGlu = O=C(O)[C@H](CCC(=O)[*:2])N[*:1]; Palmitoyl = CCCCCCCCCCCCCCCC(=O)*; Aib = CC(C)(N)C(=O)O

T2 sequence (P43220 24-463): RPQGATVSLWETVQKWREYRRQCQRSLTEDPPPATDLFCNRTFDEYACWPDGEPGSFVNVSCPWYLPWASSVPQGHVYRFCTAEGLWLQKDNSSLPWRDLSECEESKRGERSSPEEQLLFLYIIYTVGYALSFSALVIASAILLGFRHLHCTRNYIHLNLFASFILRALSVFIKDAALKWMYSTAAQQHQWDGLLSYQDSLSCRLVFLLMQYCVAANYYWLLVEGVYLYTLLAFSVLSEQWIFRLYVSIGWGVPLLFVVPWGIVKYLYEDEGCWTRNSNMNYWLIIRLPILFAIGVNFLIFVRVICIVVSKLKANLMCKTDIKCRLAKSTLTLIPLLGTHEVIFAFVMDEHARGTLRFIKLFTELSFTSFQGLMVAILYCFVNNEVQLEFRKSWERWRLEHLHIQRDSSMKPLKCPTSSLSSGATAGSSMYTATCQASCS
T1 sequence (P47871 26-477): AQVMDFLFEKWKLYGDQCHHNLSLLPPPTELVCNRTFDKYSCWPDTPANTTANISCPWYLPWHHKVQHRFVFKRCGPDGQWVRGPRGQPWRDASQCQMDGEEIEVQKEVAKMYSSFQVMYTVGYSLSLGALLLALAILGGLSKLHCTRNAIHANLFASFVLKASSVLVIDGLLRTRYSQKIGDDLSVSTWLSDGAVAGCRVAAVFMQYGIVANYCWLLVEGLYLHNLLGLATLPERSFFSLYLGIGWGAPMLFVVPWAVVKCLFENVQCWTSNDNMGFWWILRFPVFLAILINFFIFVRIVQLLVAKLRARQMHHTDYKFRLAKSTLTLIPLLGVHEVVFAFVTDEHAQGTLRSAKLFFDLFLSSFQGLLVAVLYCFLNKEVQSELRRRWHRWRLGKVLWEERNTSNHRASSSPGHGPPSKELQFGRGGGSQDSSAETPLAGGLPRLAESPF

What is called EC50 is the concentration that produces a half-maximal response. As to `CCCCCCCCCCCCCCCC(=O)N[C@@H](CCC(=O)NCCCC[C@H](NC(=O)[C@H](CO)NC(=O)[C@H](CC(=O)O)NC(=O)[C@H](CC(C)C)NC(=O)[C@H](Cc1ccc(O)cc1)NC(=O)[C@H](CCCNC(=N)N)NC(=O)[C@H](CO)NC(=O)[C@H](Cc1ccc(O)cc1)NC(=O)[C@H](CC(=O)O)NC(=O)[C@H](CO)NC(=O)[C@@H](NC(=O)[C@H](Cc1ccccc1)NC(=O)[C@@H](NC(=O)CNC(=O)[C@H](CCC(N)=O)NC(=O)[C@H](CO)NC(=O)[C@@H](N)Cc1c[nH]cn1)[C@@H](C)O)[C@@H](C)O)C(=O)N[C@@H](C)C(=O)N[C@@H](C)C(=O)N[C@@H](Cc1c[nH]cn1)C(=O)N[C@@H](CC(=O)O)C(=O)N[C@@H](Cc1ccccc1)C(=O)N[C@H](C(=O)N[C@@H](CCC(=O)O)C(=O)N[C@@H](Cc1c[nH]c2ccccc12)C(=O)N[C@@H](CC(C)C)C(=O)N[C@@H](CC(C)C)C(=O)N[C@@H](CO)C(=O)N[C@@H](C)C(N)=O)C(C)C)C(=O)O` [Compound 12, H-HSQGTFTSDYSRYLDS-K(Hexadecanoyl-isoGlu)-AAHDFVEWLLSA-NH2] (H-HSQGTFTSDYSRYLDSK([γGlu-Palmitoyl])AAHDFVEWLLSA-NH2), the EC50 in experiment [1] is 430 pM; in experiment [2], 370 pM; in experiment [3], 1620 pM. In addition, the “Ratio GLP-1/Glucagon” value in experiment [2] is on record as 0.86. For the same compound, the “AUC (% Ctrl)” value in experiment [4] is recorded as 56 % Ctrl.
`CCCCCCCCCCCCCCCC(=O)N[C@@H](CCC(=O)NCCCC[C@H](NC(=O)[C@H](CO)NC(=O)[C@H](CC(=O)O)NC(=O)[C@H](CC(C)C)NC(=O)[C@H](Cc1ccc(O)cc1)NC(=O)[C@H](CCCCN)NC(=O)[C@H](CO)NC(=O)[C@H](Cc1ccc(O)cc1)NC(=O)[C@H](CC(=O)O)NC(=O)[C@H](CO)NC(=O)[C@@H](NC(=O)[C@H](Cc1ccccc1)NC(=O)[C@@H](NC(=O)CNC(=O)[C@H](CCC(N)=O)NC(=O)C(C)(C)NC(=O)[C@@H](N)Cc1c[nH]cn1)[C@@H](C)O)[C@@H](C)O)C(=O)N[C@@H](C)C(=O)N[C@@H](C)C(=O)N[C@@H](Cc1c[nH]cn1)C(=O)N[C@@H](CC(=O)O)C(=O)N[C@@H](Cc1ccccc1)C(=O)N[C@H](C(=O)N[C@@H](CCC(=O)O)C(=O)N[C@@H](Cc1c[nH]c2ccccc12)C(=O)N[C@@H](CC(C)C)C(=O)N[C@@H](CC(C)C)C(=O)N[C@@H](CO)C(=O)N[C@@H](C)C(=O)O)C(C)C)C(=O)O` [Compound 13, H-H-Aib-QGTFTSDYSKYLDS-K(Hexadecanoyl-isoGlu)-AAHDFVEWLLSA-OH]: the EC50 in experiment [1] came to 980 pM; in experiment [2] it was 510 pM; in experiment [3], 1060 pM. Further, in experiment [2], the “Ratio GLP-1/Glucagon” value was 0.52. The “AUC (% Ctrl)” value in experiment [4] turned out to be 55 % Ctrl.
As to `CCCCCCCCCCCCCCCC(=O)N[C@@H](CCC(=O)NCCCC[C@H](NC(=O)[C@H](CO)NC(=O)[C@H](CC(=O)O)NC(=O)[C@H](CC(C)C)NC(=O)[C@H](Cc1ccc(O)cc1)NC(=O)[C@H](CCCCN)NC(=O)[C@H](CO)NC(=O)[C@H](Cc1ccc(O)cc1)NC(=O)[C@H](CC(=O)O)NC(=O)[C@H](CO)NC(=O)[C@@H](NC(=O)[C@H](Cc1ccccc1)NC(=O)[C@@H](NC(=O)CNC(=O)[C@H](CCC(N)=O)NC(=O)C(C)(C)NC(=O)[C@@H](N)Cc1c[nH]cn1)[C@@H](C)O)[C@@H](C)O)C(=O)N[C@@H](C)C(=O)N[C@@H](C)C(=O)N[C@@H](CCC(=O)O)C(=O)N[C@@H](CC(=O)O)C(=O)N[C@@H](Cc1ccccc1)C(=O)N[C@H](C(=O)N[C@@H](CCC(=O)O)C(=O)N[C@@H](Cc1c[nH]c2ccccc12)C(=O)N[C@@H](CC(C)C)C(=O)N[C@@H](CCC(=O)O)C(=O)N[C@@H](CO)C(=O)N[C@@H](C)C(N)=O)C(C)C)C(=O)O` [Compound 16, H-H-Aib-QGTFTSDYSKYLDS-K(Hexadecanoyl-isoGlu)-AAEDFVEWLESA-NH2] (H-H[Aib]QGTFTSDYSKYLDSK([γGlu-Palmitoyl])AAEDFVEWLESA-NH2), the values for the EC50 in experiment [1], in experiment [2] and in experiment [3] were 1580 pM, 200 pM and 330 pM, respectively. In experiment [2], the “Ratio GLP-1/Glucagon” value stood at 0.13. In experiment [4], the “AUC (% Ctrl)” value stood at 44 % Ctrl.
The matching figures for `CCCCCCCCCCCCCCCC(=O)N[C@@H](CCC(=O)NCCCC[C@H](NC(=O)[C@H](CCC(=O)O)NC(=O)[C@H](CC(=O)O)NC(=O)[C@H](CC(C)C)NC(=O)[C@H](Cc1ccc(O)cc1)NC(=O)[C@H](CCCCN)NC(=O)[C@H](CO)NC(=O)[C@H](Cc1ccc(O)cc1)NC(=O)[C@H](CC(=O)O)NC(=O)[C@H](CO)NC(=O)[C@@H](NC(=O)[C@H](Cc1ccccc1)NC(=O)[C@@H](NC(=O)CNC(=O)[C@H](CCC(N)=O)NC(=O)C(C)(C)NC(=O)[C@@H](N)Cc1c[nH]cn1)[C@@H](C)O)[C@@H](C)O)C(=O)N[C@@H](CCCNC(=N)N)C(=O)N[C@@H](C)C(=O)N[C@@H](CCCCN)C(=O)N[C@@H](CC(=O)O)C(=O)N[C@@H](Cc1ccccc1)C(=O)N[C@H](C(=O)N[C@@H](CCC(=O)O)C(=O)N[C@@H](Cc1c[nH]c2ccccc12)C(=O)N[C@@H](CC(C)C)C(=O)N[C@@H](CC(C)C)C(=O)N[C@@H](CO)C(=O)N[C@@H](C)C(=O)O)[C@@H](C)CC)C(=O)O` [Compound 14, H-H-Aib-QGTFTSDYSKYLDE-K(Hexadecanoyl-isoGlu)-RAKDFIEWLLSA-OH] (H-H[Aib]QGTFTSDYSKYLDEK([γGlu-Palmitoyl])RAKDFIEWLLSA-OH): 540 pM, 530 pM, 720 pM, 0.98 and 59 % Ctrl.
For `CCCCCCCCCCCCCCCC(=O)N[C@@H](CCC(=O)NCCCC[C@H](NC(=O)[C@H](CCC(=O)O)NC(=O)[C@H](CC(=O)O)NC(=O)[C@H](CC(C)C)NC(=O)[C@H](Cc1ccc(O)cc1)NC(=O)[C@H](CCCCN)NC(=O)[C@H](CO)NC(=O)[C@H](Cc1ccc(O)cc1)NC(=O)[C@H](CC(=O)O)NC(=O)[C@H](CO)NC(=O)[C@@H](NC(=O)[C@H](Cc1ccccc1)NC(=O)[C@@H](NC(=O)CNC(=O)[C@H](CCC(N)=O)NC(=O)C(C)(C)NC(=O)[C@@H](N)Cc1c[nH]cn1)[C@@H](C)O)[C@@H](C)O)C(=O)N[C@@H](C)C(=O)N[C@@H](C)C(=O)N[C@@H](CCCCN)C(=O)N[C@@H](CC(=O)O)C(=O)N[C@@H](Cc1ccccc1)C(=O)N[C@H](C(=O)N[C@@H](CCC(=O)O)C(=O)N[C@@H](Cc1c[nH]c2ccccc12)C(=O)N[C@@H](CC(C)C)C(=O)N[C@@H](CCC(=O)O)C(=O)N[C@@H](CO)C(=O)N[C@@H](C)C(N)=O)[C@@H](C)CC)C(=O)O` [Compound 15, H-H-Aib-QGTFTSDYSKYLDE-K(Hexadecanoyl-isoGlu)-AAKDFIEWLESA-NH2] the same measures were 610 pM, 190 pM, 300 pM, 0.31 and 42 % Ctrl.
